Source: US20100034779A1, “COMPOSITIONS AND METHODS FOR PRODUCING PLURIPOTENT CELLS FROM ADULT TESTIS” (priority 2005, published 2010)
Entries after “also recorded” stand apart in the source; their conditions may differ.

What was measured:
[1] = tested on: non-human primate SSCs; test: formation of ESC-like colonies in culture of non-human primate SSCs; type: cell-based; conditions: BIO 1 μM; non-human primate cultures
[2] = tested on: human SSCs; test: formation of ESC-like colonies in culture of human SSCs; type: cell-based; conditions: BIO 1 μM; human cultures
Description: To optimize the culture condition, DMEM/F12 (1:1; Invitrogen) was applied instead of DMEM as basic medium and several growth factors for long-term culture were added: GDNF (4-50 ng/ml), bFGF (1-10 ng/ml), LIF (10^3 Units/ml), BIO (Calbiochem) and 1×B27 (Invitrogen). Collagenase IV (1 mg/ml in PBS) was used instead of trypsin/EDTA for passaging the cells. […] Tightly packed ESC-like colonies derived from human SSCs after 7 passages (about 1 month; FIG. 3d, e) when cells are cultured in DMEM/F12 medium containing 15% FCS, 2 mM glutamine, 1×NEAA, 50 μM β-ME, 10 ng/ml GDNF, 2 ng/ml bFGF, 10^3 Units/ml LIF and 1×B27.

[3] = tested on: voltage-gated Na+ and L-type Ca2+ channels; test: patch-clamp spontaneous action potentials, channel blockade; type: cell-based, mouse; conditions: cadmium 0.5 mmol/L; maGSC-derived cardiomyocytes
Description: To determine the functional expression of […] receptors in cardiomyocytes, the effects of β-adrenergic agonist isoproterenol (Iso; 1 μmol/L) on APs were studied. […] This is again in line with data from the ESC-derived cardiomyocytes. […] A further hint for the involvement of fast depolarising Na^+ channels are AP upstroke velocities in the magnitude of 30-50 Vs^−1 for ventricle-, purkinje and atrial-like APs (Table 3).
The membrane potential (Em) of cardiomyocytes was measured at room temperature with ruptured-patch whole cell current clamp (Maier, L. S., et al., Circ Res 2003, 92, 904-11). Fire-polished glass microelectrodes of >10 MΩ resistance when filled with pipette solution were used. Pipette solution contained (in mM) 120 potassium aspartate, 8 KCl, 7 NaCl, 1 MgCl2, 10 HEPES, 5 Mg-ATP, 0.3 Li-GTP (pH 7.2 with KOH). A normal Tyrode's solution with 2 mM CaCl2 served as bath solution. Access resistance was typically ˜20 MΩ after patch rupture. Liquid junction potentials were corrected before recording started. Spontaneous action potentials (APs) were recorded 1 min after patch rupture and followed for about 2 min. Signals were acquired at 1 kHz, filtered with 2.9 and 10 kHz Bessel filters, and recorded with an EPC10 amplifier (HEKA Elektronik, Lambrecht/Pfalz, Germany). […]

[4] = tested on: gap junctions; test: fluorescence recovery after photobleaching (FRAP) of calcein AM in cardiac clusters; type: cell-based, mouse; conditions: carbenoxolone 50 μmol/L
Description: Functional coupling between cells is confirmed by fluorescence recovery after photobleaching (FRAP) analysis. Briefly, cardiac clusters were loaded with the membrane-permeant fluorescent dye calcein AM (5 μmol/L; Invitrogen) in Ca^2+-free Tyrode solution for 20 min at 37° C. After washing away the excess extracellular fluorescent dye to prevent further loading, the cultures were bathed in Ca^2+-free Tyrode solution and placed on the stage of a Zeiss LSM 5 PASCAL laser-scanning confocal microscope. Using Zeiss software, a rectangular region encompassing 30-50% of a single cell within a cell cluster was selected and its fluorescence was bleached by a high-intensity laser pulse (488 nm, 3-5 s duration). This caused immediate loss of calcein fluorescence emission recorded through a 505 nm long-pass emission filter. Calcein redistribution from adjacent unbleached cells through connexin pores into the bleached region of interest (ROI) was recorded in subsequent confocal images acquired at 30 s intervals for up to 10 min using a low-intensity laser pulse. Fluorescence recovery within ROI was plotted as a function of time and fit to a single exponential function: IROI (t)=A [1−exp (−kt)], where IROI (t) is the ROI fluorescence intensity at time t, A is the amplitude of fluorescence recovery, and k is the rate of recovery. The latter is considered a measure of gap junction permeability. […]

[5] = target: T1, L-type calcium channels (Mus musculus, UniProt Q01815); test: chronotropic effects of cardioactive drugs on beating cardiac clusters; type: cell-based; conditions: beating cardiac clusters at day 5+15; for beating frequency / contraction: 10^−5 mol/L; for chronotropic effect on the beating frequency of maGSC-derived cardiomyocytes: dose dependence
T1 construct: functional L-type calcium channels exist in the maGSC-derived beating cardiomyocytes; endogenous in cells; host or cells: beating cardiac clusters (day 5+15) differentiated from mouse maGSCs
Description: In cardiac muscle, where Ca^2+ influx across the sarcolemma is essential for contraction, the dihydropyridine (DHP)-sensitive L-type calcium channel (DHP receptor) represents the major entry pathway of extracellular Ca^2+. […] The function of L-type calcium channels is examined in beating cardiac clusters at day 5+15 by evaluating chronotropic effects of cardioactive drugs.

T1 sequence (Q01815 whole entry): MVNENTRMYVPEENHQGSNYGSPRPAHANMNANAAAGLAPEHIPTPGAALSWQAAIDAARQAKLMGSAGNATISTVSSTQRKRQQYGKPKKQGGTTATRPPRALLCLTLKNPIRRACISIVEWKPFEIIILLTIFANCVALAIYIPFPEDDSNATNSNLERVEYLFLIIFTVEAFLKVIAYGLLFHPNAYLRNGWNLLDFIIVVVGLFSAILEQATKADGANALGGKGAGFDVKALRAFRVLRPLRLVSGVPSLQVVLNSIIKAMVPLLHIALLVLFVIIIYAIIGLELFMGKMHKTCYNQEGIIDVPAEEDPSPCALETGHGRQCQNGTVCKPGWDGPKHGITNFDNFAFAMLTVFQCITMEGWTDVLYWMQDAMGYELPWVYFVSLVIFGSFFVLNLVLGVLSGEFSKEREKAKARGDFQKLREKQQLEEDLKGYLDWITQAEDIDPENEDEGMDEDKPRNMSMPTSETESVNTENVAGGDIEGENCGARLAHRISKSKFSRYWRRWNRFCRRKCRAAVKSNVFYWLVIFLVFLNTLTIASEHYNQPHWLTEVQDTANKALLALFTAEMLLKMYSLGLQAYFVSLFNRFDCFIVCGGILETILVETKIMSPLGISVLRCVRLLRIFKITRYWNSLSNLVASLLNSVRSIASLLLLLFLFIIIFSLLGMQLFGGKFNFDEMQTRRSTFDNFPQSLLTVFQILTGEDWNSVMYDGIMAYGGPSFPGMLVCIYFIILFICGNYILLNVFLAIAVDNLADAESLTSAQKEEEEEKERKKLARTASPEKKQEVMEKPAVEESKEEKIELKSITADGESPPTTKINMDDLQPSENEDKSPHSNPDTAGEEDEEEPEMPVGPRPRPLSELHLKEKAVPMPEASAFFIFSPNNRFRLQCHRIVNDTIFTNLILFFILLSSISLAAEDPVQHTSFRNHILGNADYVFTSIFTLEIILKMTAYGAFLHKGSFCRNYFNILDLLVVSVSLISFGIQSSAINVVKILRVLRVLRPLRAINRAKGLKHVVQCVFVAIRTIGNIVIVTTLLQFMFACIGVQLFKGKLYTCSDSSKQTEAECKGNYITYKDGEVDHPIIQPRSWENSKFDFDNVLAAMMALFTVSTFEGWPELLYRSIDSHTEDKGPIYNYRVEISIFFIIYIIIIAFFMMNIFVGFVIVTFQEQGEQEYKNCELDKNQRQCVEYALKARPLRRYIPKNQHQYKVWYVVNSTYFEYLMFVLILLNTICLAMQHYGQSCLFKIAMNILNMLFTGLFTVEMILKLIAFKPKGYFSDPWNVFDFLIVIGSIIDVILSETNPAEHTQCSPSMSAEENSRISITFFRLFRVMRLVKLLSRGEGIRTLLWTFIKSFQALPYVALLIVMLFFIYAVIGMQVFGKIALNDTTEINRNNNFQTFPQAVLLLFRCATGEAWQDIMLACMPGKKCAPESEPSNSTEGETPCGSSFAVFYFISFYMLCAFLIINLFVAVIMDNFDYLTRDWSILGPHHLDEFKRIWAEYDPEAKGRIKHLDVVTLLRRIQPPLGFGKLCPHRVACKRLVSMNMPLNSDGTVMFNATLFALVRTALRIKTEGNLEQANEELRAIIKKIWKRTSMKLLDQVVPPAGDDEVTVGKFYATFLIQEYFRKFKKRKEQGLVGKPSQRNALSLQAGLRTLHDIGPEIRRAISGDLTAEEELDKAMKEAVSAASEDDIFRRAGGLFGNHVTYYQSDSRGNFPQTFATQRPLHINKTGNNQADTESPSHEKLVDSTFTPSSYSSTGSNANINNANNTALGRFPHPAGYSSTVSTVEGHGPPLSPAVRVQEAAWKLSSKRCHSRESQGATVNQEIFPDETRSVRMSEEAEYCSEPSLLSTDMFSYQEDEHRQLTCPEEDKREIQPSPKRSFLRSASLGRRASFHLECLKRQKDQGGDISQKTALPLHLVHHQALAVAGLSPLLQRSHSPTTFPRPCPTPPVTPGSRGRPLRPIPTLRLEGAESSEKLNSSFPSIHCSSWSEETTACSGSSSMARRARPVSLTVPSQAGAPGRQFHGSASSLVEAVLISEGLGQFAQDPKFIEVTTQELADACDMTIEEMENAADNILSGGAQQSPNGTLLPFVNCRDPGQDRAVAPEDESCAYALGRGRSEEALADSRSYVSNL
T1 sequence (Q8CC27 whole entry partner): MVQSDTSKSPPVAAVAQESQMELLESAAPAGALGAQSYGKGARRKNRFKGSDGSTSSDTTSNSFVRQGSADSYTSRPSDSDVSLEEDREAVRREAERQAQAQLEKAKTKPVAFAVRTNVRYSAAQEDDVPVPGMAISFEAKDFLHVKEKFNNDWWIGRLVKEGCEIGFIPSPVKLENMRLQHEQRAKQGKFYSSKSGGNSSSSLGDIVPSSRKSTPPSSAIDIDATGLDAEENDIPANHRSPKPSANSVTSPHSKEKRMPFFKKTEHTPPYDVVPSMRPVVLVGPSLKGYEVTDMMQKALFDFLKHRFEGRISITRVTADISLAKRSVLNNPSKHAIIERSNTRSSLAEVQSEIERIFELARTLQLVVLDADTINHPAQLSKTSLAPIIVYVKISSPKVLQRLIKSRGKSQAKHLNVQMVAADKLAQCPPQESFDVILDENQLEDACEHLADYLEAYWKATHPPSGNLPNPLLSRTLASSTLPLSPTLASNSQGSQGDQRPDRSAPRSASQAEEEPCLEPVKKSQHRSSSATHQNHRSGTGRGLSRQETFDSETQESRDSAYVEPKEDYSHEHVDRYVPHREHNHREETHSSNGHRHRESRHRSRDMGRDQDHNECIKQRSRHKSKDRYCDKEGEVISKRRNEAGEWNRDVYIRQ
T1 sequence (O08532 25-956 partner limits assumed): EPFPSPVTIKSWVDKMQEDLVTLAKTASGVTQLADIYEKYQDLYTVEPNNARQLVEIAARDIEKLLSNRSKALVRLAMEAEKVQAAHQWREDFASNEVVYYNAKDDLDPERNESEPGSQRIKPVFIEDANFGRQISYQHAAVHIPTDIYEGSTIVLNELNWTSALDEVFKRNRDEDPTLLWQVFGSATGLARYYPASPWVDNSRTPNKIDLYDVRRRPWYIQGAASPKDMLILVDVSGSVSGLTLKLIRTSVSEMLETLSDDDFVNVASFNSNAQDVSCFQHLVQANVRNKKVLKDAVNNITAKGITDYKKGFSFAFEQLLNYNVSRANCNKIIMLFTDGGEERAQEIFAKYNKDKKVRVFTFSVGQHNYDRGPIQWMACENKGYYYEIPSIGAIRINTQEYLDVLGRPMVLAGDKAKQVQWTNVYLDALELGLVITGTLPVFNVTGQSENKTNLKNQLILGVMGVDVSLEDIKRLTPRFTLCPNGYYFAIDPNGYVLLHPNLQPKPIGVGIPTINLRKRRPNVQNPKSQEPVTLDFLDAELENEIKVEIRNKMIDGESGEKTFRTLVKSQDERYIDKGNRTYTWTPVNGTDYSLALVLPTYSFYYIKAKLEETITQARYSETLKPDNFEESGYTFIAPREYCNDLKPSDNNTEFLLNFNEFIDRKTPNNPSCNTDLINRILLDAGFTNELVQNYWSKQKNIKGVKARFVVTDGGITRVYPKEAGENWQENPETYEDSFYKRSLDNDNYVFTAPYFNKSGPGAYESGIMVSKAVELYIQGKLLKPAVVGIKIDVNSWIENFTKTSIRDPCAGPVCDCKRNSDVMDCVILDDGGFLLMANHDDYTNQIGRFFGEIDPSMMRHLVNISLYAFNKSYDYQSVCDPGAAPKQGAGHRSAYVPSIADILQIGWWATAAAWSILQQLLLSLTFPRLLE
T1 sequence (O08532 957-1103 partner limits assumed): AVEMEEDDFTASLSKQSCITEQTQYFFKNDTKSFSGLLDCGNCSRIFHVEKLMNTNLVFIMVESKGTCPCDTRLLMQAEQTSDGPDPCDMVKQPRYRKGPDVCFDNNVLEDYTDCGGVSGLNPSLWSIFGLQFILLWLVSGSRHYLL

| Compound | beating frequency / contraction [5] | chronotropic effect on the beating frequency of maGSC-derived cardiomyocytes [5] | also measured |
| --- | --- | --- | --- |
| O=C1Nc2cc(Br)ccc2/C1=C1/Nc2ccccc2/C1=N\O [BIO, (2′Z, 3′E)-6-Bromoindirubin-3′-oxime] | – | – | formation of ESC-like colonies [1]: optimized the formation of ESC-like colonies; formation of ESC-like colonies [2]: optimized the formation of ESC-like colonies |
| [Cd] [cadmium] | – | – | spontaneous APs [3]: completely abolished |
| CC1(C)[C@@H](OC(=O)CCC(=O)O)CC[C@]2(C)[C@H]3C(=O)C=C4[C@@H]5C[C@@](C)(C(=O)O)CC[C@]5(C)CC[C@@]4(C)[C@]3(C)CC[C@@H]12 [carbenoxolone, 3β-hydroxy-11-oxoolean-12-en-30-oic acid 3-hemisuccinate] | – | – | fluorescence recovery after photobleaching [4]: disrupted; also recorded: almost completely abolished |
| COc1ccc([C@@H]2Sc3ccccc3N(CCN(C)C)C(=O)[C@@H]2OC(C)=O)cc1 [diltiazem] | almost completely blockes the contraction | dose-dependent negative chronotropic effects | – |
| (S)-BayK 8644 | doubles the beating frequency | dose-dependent positive chronotropic effects | – |
